Experiments:
EZH2 = EZH2 (Homo sapiens, UniProt Q15910); experiment: EZH2 Assay (3H SAM methyl transfer, rPRC2, FlashPlate); assay type: biochemical; conditions: rPRC2, biotinylated oligonucleosomes, 0.2 μM 3H SAM, 2 nM EZH2
Procedure: (§1) EZH2 Assay: Assays were carried out by mixing rPRC2 together with biotinylated oligonucleosome substrates in the presence of the radio-labeled enzyme co-factor, S-adenosyl-L-methionine (^3H SAM) (Perkin Elmer) and monitoring the enzymatically mediated transfer of tritiated methyl groups from ^3H SAM to histone lysine residues. The amount of resulting tritiated methyl histone product was measured by first capturing the biotinylated oligonucleosomes in streptavidin (SAV) coated FlashPlates (Perkin Elmer), followed by a wash step to remove unreacted ^3H SAM, and then counting on a TopCount NXT 384 well plate scintillation counter (Perkin Elmer). The final assay conditions for EZH2 were as follows: 50 mM Tris Buffer pH 8.5, 1 mM DTT, 69 μM Brij-35 detergent, 5.0 mM MgCl2, 0.1 mg/mL BSA, 0.2 μM ^3H SAM, 0.2 μM biotinylated oligonucleosomes, 3.6 μM H3K27me3 peptide and 2 nM EZH2.
(§2) Compound IC50 measurements were obtained as follows: Compounds were first dissolved in 100% DMSO as 10 mM stock solutions. Ten point dose response curves were generated by dispensing varying amounts of the 10 mM compound solution in 10 wells of the 384 well plate (Echo; Labcyte), pure DMSO was then used to backfill the wells to insure all wells have the same amount of DMSO. A 12.5 μL volume of the HMT enzyme, H3K27me3 peptide and oligonucleosome substrate in assay buffer was added to each well of the assay plate using a Multidrop Combi (ThermoFisher). Compounds were pre-incubated with the enzyme for 20 min, followed by initiation of the methyltransferase reaction by addition of 12.5 μL of ^3H SAM in assay buffer (final volume=25 μL). The final concentrations of compounds ranged from a top default concentration of 80 μM down to 0.16 μM in ten 2-fold dilution steps. Reactions were carried out for 60 minutes and quenched with 20 μL per well of 1.96 mM SAH, 50 mM Tris pH 8.5, 200 mM EDTA. Stopped reactions were transferred to SAV coated Flashplates (Perkin Elmer), incubated for 120 min, washed with a plate washer, and then read on the TopCount NXT (1.0 min/well) to measure the amount of methyl histone product formed during the reaction. The amount of methyl histone product was compared with the amount of product formed in the 0% and 100% inhibition control wells allowing the calculation of % Inhibition in the presence of the individual compounds at various concentrations. IC50's were computed using a 4 parameter fit non-linear curve fitting software package (XLFIT, part of the database package, ActivityBase (IDBS)) where the four parameters were IC50, Hill slope, pre-transitional baseline (0% INH), and post-transitional baseline (100% INH); with the latter two parameters being fixed to zero and 100%, respectively, by default.

Y641N EZH2 = Y641N EZH2 (Homo sapiens, UniProt Q15910, Y641N); experiment: Assay for Y641N EZH2 (as the EZH2 assay, H3K27Me2 oligonucleosomes as substrate); assay type: biochemical; conditions: Y641N EZH2 mutant, reconstituted H3K27Me2 oligonucleosomes as substrate
Procedure: as §1, §2
Assay for Y641N EZH2 was performed as above using reconstituted H3K27Me2 oligonucleosomes as substrate.

[1] = tested on: H3K27me3 mark in Hela cells expressing wild type EZH2; experiment: H3K27me3 Alpha Hela Assay (AlphaLISA); assay type: cell-based; conditions: Homo sapiens, 72 hrs, read-out: H3K27me3_Alpha_HeLa (EC50)
Procedure: H3K27me3 Alpha Hela Assay (AlphaLISA). Ten different doses of each test compound (in a series of 3-fold dilutions) were plated in duplicate 384-well tissue culture treated plates (Catalog #781080; Greiner Bio One; Monroe, N.C.). Hela cells grown in culture were trypsinized and counted using a Countess® cell counter (Catalog # C10281; Life Technologies, Grand Island, N.Y.). Cell were diluted to 67,000 cells per mL in 10% DMEM (Catalog #10569-010 Life Technologies, Grand Island, N.Y.) and 15 μL (1,000 cells) were plated into each well using the Biotek MicroFlo™ Select Dispenser (BioTek Instruments, Inc. Vermont, USA),) of the 384-well plate. Plates were incubated at 37° C./5% CO2 for 72 hrs. One of the duplicate plates was processed for HeLa assay and the other for viability.
To the plate processed for AlphaLISA was added 5 μL per well Cell-Histone Lysis buffer (1×) (Catalog # AL009F1 Perkin Elmer; Waltham, Mass.) and the plate was incubated at RT for 30 minutes on a plate shaker with low speed (Model#4625-Q Thermo Scientific; Waltham, Mass.). Then, 10 μL per well Histone Extraction buffer (catalog # AL009F2; Perkin Elmer; Waltham, Mass.) was added and the plate further incubated at RT for 20 min on plate shaker with low speed. To each well was then added 10 μL per well of a 5× mix of anti-K27me3 acceptor beads plus Biotinylated anti-Histone H3 (C-ter) Antibody (diluted to 3 nM final) (Catalog #AL118 Perkin Elmer; Waltham, Mass.). Dilution of the acceptor beads and then anti-Histone H3 was with 1× Histone Detection buffer (Catalog # AL009F3 Perkin Elmer; Waltham, Mass.) which was produced diluted from the 10× stock provided. The plate was sealed with an aluminum plate sealer and incubated at 23° C. for 60 min. We then added 10 μL 5× solution of Streptavidin Donor beads (Catalog #6760002 Perkin Elmer; Waltham, Mass.) (20 μg/mL final in 1× Histone Detection Buffer), sealed the plate with Aluminum plate sealer and incubated at 23° C. for 30 min. The plates were then read using an EnVision-Alpha Reader (model #2104 Perkin Elmer; Waltham, Mass.).
Data from both assays was analyzed using Assay Assistant (Constellation Pharmaceuticals In-house product) and Activity Base (IDBS Ltd, Surrey, UK) template. Data files were imported to Assay Assistant and assay conditions were specified. A unique Analysis ID was created and the data files exported to Activity Base. An analysis template was created on Activity Base to measure dose-dependent inhibition of H3K27me3 mark and cell viability respectively. Readout of DMSO wells were used to normalize the data. Resulting curves were fitted using Activity base software Model 205 (IDBS Ltd, Surrey, UK). The data was checked for quality, validated and integrated in excel format using SARview (IDBS Ltd, Surrey, UK).

EZH2, sequence (Q15910 whole entry): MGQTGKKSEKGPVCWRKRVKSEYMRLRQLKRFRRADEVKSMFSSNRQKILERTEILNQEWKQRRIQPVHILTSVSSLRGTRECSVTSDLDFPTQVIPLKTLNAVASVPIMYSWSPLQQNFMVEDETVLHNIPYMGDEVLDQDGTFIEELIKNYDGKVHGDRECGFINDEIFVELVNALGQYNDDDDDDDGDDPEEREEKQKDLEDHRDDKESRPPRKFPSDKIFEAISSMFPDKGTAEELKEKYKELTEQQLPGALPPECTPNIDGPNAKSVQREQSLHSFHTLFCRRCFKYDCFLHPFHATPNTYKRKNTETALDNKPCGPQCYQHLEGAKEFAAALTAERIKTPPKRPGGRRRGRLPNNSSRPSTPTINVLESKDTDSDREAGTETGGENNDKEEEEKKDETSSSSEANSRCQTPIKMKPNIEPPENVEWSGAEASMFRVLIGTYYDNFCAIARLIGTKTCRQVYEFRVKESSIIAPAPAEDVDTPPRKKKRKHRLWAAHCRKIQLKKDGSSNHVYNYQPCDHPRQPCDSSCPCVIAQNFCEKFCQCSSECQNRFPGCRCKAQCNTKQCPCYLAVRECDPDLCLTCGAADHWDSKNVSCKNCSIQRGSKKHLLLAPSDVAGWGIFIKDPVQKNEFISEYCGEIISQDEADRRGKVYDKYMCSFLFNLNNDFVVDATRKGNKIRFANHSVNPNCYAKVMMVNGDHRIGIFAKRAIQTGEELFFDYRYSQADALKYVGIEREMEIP
EZH2, sequence (O75530 whole entry partner): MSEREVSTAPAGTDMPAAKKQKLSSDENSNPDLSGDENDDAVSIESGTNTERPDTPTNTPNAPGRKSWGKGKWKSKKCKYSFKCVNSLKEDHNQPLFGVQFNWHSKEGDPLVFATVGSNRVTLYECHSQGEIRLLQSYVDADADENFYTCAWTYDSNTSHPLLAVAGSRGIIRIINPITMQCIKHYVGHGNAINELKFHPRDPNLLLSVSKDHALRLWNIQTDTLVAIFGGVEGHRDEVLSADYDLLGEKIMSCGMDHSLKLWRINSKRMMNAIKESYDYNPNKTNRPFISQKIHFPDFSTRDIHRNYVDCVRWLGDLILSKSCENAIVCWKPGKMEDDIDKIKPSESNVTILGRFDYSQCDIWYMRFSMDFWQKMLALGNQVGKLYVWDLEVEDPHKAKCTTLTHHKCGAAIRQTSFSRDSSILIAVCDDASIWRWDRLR
EZH2, sequence (Q15022 whole entry partner): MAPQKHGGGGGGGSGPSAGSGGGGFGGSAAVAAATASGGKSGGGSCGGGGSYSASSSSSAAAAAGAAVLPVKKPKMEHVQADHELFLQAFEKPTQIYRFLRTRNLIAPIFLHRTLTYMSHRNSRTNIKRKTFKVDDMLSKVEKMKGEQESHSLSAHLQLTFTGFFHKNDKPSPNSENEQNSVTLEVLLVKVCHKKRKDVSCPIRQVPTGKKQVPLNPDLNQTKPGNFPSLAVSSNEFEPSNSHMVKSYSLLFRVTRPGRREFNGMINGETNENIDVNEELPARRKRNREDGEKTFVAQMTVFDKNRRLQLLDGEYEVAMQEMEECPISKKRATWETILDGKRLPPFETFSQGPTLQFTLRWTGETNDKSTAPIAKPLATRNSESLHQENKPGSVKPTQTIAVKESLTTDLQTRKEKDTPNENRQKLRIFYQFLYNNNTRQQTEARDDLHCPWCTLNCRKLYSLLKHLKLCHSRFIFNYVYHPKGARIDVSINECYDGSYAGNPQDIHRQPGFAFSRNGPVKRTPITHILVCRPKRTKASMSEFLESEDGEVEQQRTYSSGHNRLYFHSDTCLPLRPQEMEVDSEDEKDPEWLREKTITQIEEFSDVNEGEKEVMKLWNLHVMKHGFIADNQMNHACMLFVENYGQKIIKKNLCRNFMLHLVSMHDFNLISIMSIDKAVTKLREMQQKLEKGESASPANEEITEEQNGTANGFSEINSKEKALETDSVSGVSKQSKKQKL
Y641N EZH2, sequence (Q15910 whole entry Y641N): as the sequence (Q15910 whole entry) above, with Y641N counted along it
Y641N EZH2, sequence (O75530 whole entry partner): as the sequence (O75530 whole entry partner) above
Y641N EZH2, sequence (Q15022 whole entry partner): as the sequence (Q15022 whole entry partner) above

IC50 (EZH2) | IC50 (Y641N EZH2) | Y641N EZH2 IC50 (Y641N EZH2) | EC50 [1] | SMILES
< 100 nM | < 100 nM | – | – | Cc1cc(C)c(CNC(=O)c2c(C)c(-c3c(C)noc3C)n3ncccc23)c(=O)[nH]1 [Compound 118, N-((4,6-dimethyl-2-oxo-1,2-dihydropyridin-3-yl)methyl)-7-(3,5-dimethylisoxazol-4-yl)-6-methylpyrrolo[1,2-b]pyridazine-5-carboxamide]
100 to 1000 nM | 100 to 1000 nM | – | – | COc1cc(C)[nH]c(=O)c1CNC(=O)c1c(C)c(-c2c(C)cnn2C)n2ncccc12 [Compound 120, 7-(1,4-dimethyl-1H-pyrazol-5-yl)-N-((4-methoxy-6-methyl-2-oxo-1,2-dihydropyridin-3-yl)methyl)-6-methylpyrrolo[1,2-b]pyridazine-5-carboxamide]
< 100 nM | – | *(0.5 μM) | – | CCCc1cc(C)[nH]c(=O)c1CNC(=O)c1c(C)c(-c2c(C)noc2C)n2ncccc12 [Compound 123, 7-(3,5-dimethylisoxazol-4-yl)-6-methyl-N-((6-methyl-2-oxo-4-propyl-1,2-dihydropyridin-3-yl)methyl)pyrrolo[1,2-b]pyridazine-5-carboxamide]
< 100 nM | – | – | 2000 to 10000 nM | COc1ccc2c(C(=O)NCc3c(C)cc(C)[nH]c3=O)c(C)c(C(C)C3CCN(CC(C)(C)O)CC3)n2n1 (centres unmarked) [Compound 127, N-((4,6-dimethyl-2-oxo-1,2-dihydropyridin-3-yl)methyl)-7-(1-(1-(2-hydroxy-2-methylpropyl)piperidin-4-yl)ethyl)-2-methoxy-6-methylpyrrolo[1,2-b]pyridazine-5-carboxamide]
< 100 nM | – | – | < 400 nM | Cc1cc(C)c(CNC(=O)c2c(C)c(C(C)C3CCN(CC(C)(C)O)CC3)n3ncccc23)c(=O)[nH]1 (centres unmarked) [Compound 128, N-((4,6-dimethyl-2-oxo-1,2-dihydropyridin-3-yl)methyl)-7-(1-(1-(2-hydroxy-2-methylpropyl)piperidin-4-yl)ethyl)-6-methylpyrrolo[1,2-b]pyridazine-5-carboxamide]
< 100 nM | – | – | 400 to 2000 nM | Cc1ccc2c(C(=O)NCc3c(C)cc(C)[nH]c3=O)c(C)c(C(C)C3CCN(CC(C)(C)O)CC3)n2n1 (centres unmarked) [Compound 129, N-((4,6-dimethyl-2-oxo-1,2-dihydropyridin-3-yl)methyl)-7-(1-(1-(2-hydroxy-2-methylpropyl)piperidin-4-yl)ethyl)-2,6-dimethylpyrrolo[1,2-b]pyridazine-5-carboxamide]
< 100 nM | – | – | 2000 to 10000 nM | COc1cc(C)[nH]c(=O)c1CNC(=O)c1c(C)c(C(C)N(C)C)n2ncccc12 (centres unmarked) [Compound 130, 7-(1-(dimethylamino)ethyl)-N-((4-methoxy-6-methyl-2-oxo-1,2-dihydropyridin-3-yl)methyl)-6-methylpyrrolo[1,2-b]pyridazine-5-carboxamide]
< 100 nM | – | – | < 400 nM | COc1cc(C)[nH]c(=O)c1CNC(=O)c1c(Cl)c(C(C)C2CCOCC2)n2ncccc12 (centres unmarked) [Compound 132, 6-chloro-N-((4-methoxy-6-methyl-2-oxo-1,2-dihydropyridin-3-yl)methyl)-7-(1-(tetrahydro-2H-pyran-4-yl)ethyl)pyrrolo[1,2-b]pyridazine-5-carboxamide]
< 100 nM | < 100 nM | – | < 400 nM | COc1cc(C)[nH]c(=O)c1CNC(=O)c1c(C)c(C(C)C2CCN(CC(F)(F)F)CC2)n2ncccc12 (centres unmarked) [Compound 133, N-((4-methoxy-6-methyl-2-oxo-1,2-dihydropyridin-3-yl)methyl)-6-methyl-7-(1-(1-(2,2,2-trifluoroethyl)piperidin-4-yl)ethyl)pyrrolo[1,2-b]pyridazine-5-carboxamide]
< 100 nM | – | – | 400 to 2000 nM | COc1cc(C)[nH]c(=O)c1CNC(=O)c1c(C)c(C(C)C2CCN(CCC(F)(F)F)CC2)n2ncccc12 (centres unmarked) [Compound 134, N-((4-methoxy-6-methyl-2-oxo-1,2-dihydropyridin-3-yl)methyl)-6-methyl-7-(1-(1-(3,3,3-trifluoropropyl)piperidin-4-yl)ethyl)pyrrolo[1,2-b]pyridazine-5-carboxamide]
< 100 nM | 1000 to 10000 nM | – | < 400 nM | COc1cc(C)[nH]c(=O)c1CNC(=O)c1c(C)c(C(C)C2CCN(C(=O)C(C)(F)F)CC2)n2ncccc12 (centres unmarked) [Compound 135, 7-(1-(1-(2,2-difluoropropanoyl)piperidin-4-yl)ethyl)-N-((4-methoxy-6-methyl-2-oxo-1,2-dihydropyridin-3-yl)methyl)-6-methylpyrrolo[1,2-b]pyridazine-5-carboxamide]
< 100 nM | – | – | < 400 nM | COc1cc(C)[nH]c(=O)c1CNC(=O)c1c(C)c(C(C)C2CCN(C(=O)C(C)(C)F)CC2)n2ncccc12 (centres unmarked) [Compound 136, 7-(1-(1-(2-fluoro-2-methylpropanoyl)piperidin-4-yl)ethyl)-N-((4-methoxy-6-methyl-2-oxo-1,2-dihydropyridin-3-yl)methyl)-6-methylpyrrolo[1,2-b]pyridazine-5-carboxamide]
< 100 nM | – | – | < 400 nM | COc1cc(C)[nH]c(=O)c1CNC(=O)c1c(C)c(C(C)C2CCN(C(=O)CC(F)(F)F)CC2)n2ncccc12 (centres unmarked) [Compound 137, N-((4-methoxy-6-methyl-2-oxo-1,2-dihydropyridin-3-yl)methyl)-6-methyl-7-(1-(1-(3,3,3-trifluoropropanoyl)piperidin-4-yl)ethyl)pyrrolo[1,2-b]pyridazine-5-carboxamide]
< 100 nM | – | – | < 400 nM | COc1cc(C)[nH]c(=O)c1CNC(=O)c1c(C)c(C(C)C2CCN(CC(C)(F)F)CC2)n2ncccc12 (centres unmarked) [Compound 143, 7-(1-(1-(2,2-difluoropropyl)piperidin-4-yl)ethyl)-N-((4-methoxy-6-methyl-2-oxo-1,2-dihydropyridin-3-yl)methyl)-6-methylpyrrolo[1,2-b]pyridazine-5-carboxamide]
< 100 nM | – | – | < 400 nM | COc1cc(C)[nH]c(=O)c1CNC(=O)c1c(C)c(C(C)C2CCN(CC(F)F)CC2)n2ncccc12 (centres unmarked) [Compound 145, 7-(1-(1-(2,2-difluoroethyl)piperidin-4-yl)ethyl)-N-((4-methoxy-6-methyl-2-oxo-1,2-dihydropyridin-3-yl)methyl)-6-methylpyrrolo[1,2-b]pyridazine-5-carboxamide]
